According to ChEMBL document CHEMBL1201862, “PubChem BioAssay data set” (2004):
Activity calls are given as the source filed them.

Columns and labels:
[1] = inhibitors of SFLLRN-triggered platelet P-selectin exposure, dose response, cell-based, fluorescence, flow cytometry, human platelets (AID 2511); format: functional
[2] = Luminescence Cell-Based Dose Confirmation HTS to Identify Inhibitors of Platelet Dense Granule Release. [Related pubchem assays: 1663 (Primary HTS), 1678 (Summary of Project)]; format: functional
[3] = biological target: Luciferin 4-monooxygenase (Photinus pyralis, UniProt P08659); assay: firefly luciferase enzyme inhibitors, dose response, biochemical, luminescence (AID 1891)
[4] = blockers of SFLLRN-triggered platelet ATP secretion – cell-based, human platelets, luminescence, dry powder, dose response (AID 493100); format: functional
[5] = Luminescence Cell-Based Dose Response Follow up to Identify Inhibitors of Platelet Dense Granule Release. [Related pubchem assays (depositor defined):AID1663, AID1678, AID2398]; format: functional
[6] = system: Escherichia coli; assay: microbe, parasite or virus in culture
[7] = system: Escherichia coli; assay: microbe, parasite or virus in culture; remark: listed apart in the source
[8] = biological target: 5-hydroxytryptamine receptor 5A (Homo sapiens, UniProt P47898); assay: Counterscreen for agonists of OPRM1-OPRD1 heterodimerization: luminescence-based cell-based high throughput dose response assay to identify agonists of 5-hydroxytryptamine (serotonin) 5A receptor (HTR5A). [Related pubchem assays (depositor defined):AID504326, AID504355, AID504692, AID504904, AID504905]; format: functional
[9] = biological target: Delta-type opioid receptor (Homo sapiens, UniProt P41143); assay: Counterscreen for agonists of heterodimerization of the mu 1 (OPRM1) and delta 1 (OPRD1) opioid receptors: Luminescence-based cell-based high throughput dose response assay to identify agonists of OPRD1 homodimerization. [Related pubchem assays (depositor defined):AID504326, AID504355, AID504692, AID504904, AID504905]; format: functional
[10] = biological target: Mu-type opioid receptor (Homo sapiens, UniProt P35372); assay: Counterscreen for agonists of heterodimerization of the mu 1 (OPRM1) and delta 1 (OPRD1) opioid receptors: Luminescence-based cell-based high throughput dose response assay to identify agonists of OPRM1 homodimerization.; format: functional;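 further: U2OS cells expressing OPRM1 and beta-arrestin as split beta-galactosidase partners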
[11] = system: Candida albicans; assay: growth inhibition of resistant C. albicans, dose response, CaCi-8 strain, fluconazole, dry powder, set 4 (AID 488950); format: functional, organism-based
[12] = system: Candida albicans; assay: Candida albicans growth inhibition, compound alone, dose response, counter-screen for antifungal drug resistance project, CaCi-2 strain, Alamar Blue, dry powder, set 2 (AID 488893); format: functional, organism-based
[13] = system: Candida albicans; assay: fluconazole resistance reversal in C. albicans, dose response, CaCi-2 strain, Alamar Blue, dry powder, set 4 (AID 488943); format: functional, organism-based
[14] = system: Candida albicans; assay: C. albicans growth inhibition with fluconazole, dose response, antifungal resistance reversal project, CaCi-2 strain, Alamar Blue, dry powder, set 2 (AID 488930); format: functional, organism-based
[15] = system: Candida albicans; assay: growth inhibition of azole-resistant C. albicans, dose response, CaCi-8 strain, Alamar Blue, dry powder, set 2 (AID 488909); format: functional, organism-based
[16] = HeLa 4N DNA content increase, dose response, cell-based, IC50 (AID 1117351); format: functional
[17] = inhibitors of PGC1a acetylation in cells, dose response, cell-based, cherry-picked samples (AID 720514); format: functional;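 further: potency may reflect raised or lowered acetylation signal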
[18] = HeLa 2N DNA content increase, dose response, cell-based, IC50 (AID 1117349); format: functional
[19] = system: A-375; assay: MITF: Counter assay: A375 proliferation Measured in Cell-Based System Using Plate Reader - 2084-03_Inhibitor_Dose_DryPowder_Activity. [Related pubchem assays (depositor defined):AID488944]; format: functional; conditions: Homo sapiens
[20] = system: A-375; assay: A375 melanoma cell viability reduction, dose response, counter-screen for MITF modulator project, cherry-pick samples, set 2 (AID 540335); format: functional, cell-based; conditions: Homo sapiens
[21] = biological target: Glucose-6-phosphate 1-dehydrogenase (Homo sapiens, UniProt P11413); assay: human G6PD enzyme inhibitors, dose response, selectivity assay for P. falciparum G6PD inhibitor project, biochemical, fluorescence (AID 504792); format: functional
Glucose-6-phosphate 1-dehydrogenase, sequence (P11413 whole entry): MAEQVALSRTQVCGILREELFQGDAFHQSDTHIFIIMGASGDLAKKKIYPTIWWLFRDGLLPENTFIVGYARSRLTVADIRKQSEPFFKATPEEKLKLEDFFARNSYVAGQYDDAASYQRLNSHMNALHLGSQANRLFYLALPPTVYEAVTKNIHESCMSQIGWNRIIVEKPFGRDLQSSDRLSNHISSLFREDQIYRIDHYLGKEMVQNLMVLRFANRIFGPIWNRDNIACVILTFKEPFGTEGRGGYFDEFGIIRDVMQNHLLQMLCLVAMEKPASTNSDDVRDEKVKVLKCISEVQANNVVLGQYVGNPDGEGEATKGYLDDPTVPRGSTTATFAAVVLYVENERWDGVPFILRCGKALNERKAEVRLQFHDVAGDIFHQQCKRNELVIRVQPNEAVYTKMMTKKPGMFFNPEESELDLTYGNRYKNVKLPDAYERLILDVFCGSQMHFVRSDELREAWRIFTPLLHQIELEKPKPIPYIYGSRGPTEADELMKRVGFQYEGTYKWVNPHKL

Luciferin 4-monooxygenase, sequence (P08659 whole entry): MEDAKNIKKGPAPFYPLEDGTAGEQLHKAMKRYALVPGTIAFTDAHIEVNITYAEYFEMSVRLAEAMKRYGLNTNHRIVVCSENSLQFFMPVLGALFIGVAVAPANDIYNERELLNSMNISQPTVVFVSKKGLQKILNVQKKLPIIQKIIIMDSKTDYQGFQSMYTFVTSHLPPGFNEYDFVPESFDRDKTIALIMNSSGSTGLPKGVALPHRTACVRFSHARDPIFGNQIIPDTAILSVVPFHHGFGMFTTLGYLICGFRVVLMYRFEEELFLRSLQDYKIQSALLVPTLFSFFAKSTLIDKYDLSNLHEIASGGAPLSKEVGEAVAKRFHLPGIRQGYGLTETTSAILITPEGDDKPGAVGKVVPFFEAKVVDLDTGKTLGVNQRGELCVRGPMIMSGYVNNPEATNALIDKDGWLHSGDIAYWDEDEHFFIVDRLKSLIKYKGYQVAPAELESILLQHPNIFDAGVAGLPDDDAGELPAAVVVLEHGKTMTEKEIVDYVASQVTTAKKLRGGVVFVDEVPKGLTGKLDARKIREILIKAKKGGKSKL
5-hydroxytryptamine receptor 5A, sequence (P47898 whole entry): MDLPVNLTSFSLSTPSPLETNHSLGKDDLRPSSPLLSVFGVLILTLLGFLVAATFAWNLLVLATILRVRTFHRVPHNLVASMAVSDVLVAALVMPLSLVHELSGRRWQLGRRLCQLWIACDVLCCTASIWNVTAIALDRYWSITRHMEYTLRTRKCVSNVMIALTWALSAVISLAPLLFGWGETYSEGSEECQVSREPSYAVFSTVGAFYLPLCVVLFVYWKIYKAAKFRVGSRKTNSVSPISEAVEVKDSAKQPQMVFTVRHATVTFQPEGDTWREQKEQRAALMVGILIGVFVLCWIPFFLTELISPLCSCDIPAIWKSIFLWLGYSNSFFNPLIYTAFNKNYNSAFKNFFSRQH
Delta-type opioid receptor, sequence (P41143 whole entry): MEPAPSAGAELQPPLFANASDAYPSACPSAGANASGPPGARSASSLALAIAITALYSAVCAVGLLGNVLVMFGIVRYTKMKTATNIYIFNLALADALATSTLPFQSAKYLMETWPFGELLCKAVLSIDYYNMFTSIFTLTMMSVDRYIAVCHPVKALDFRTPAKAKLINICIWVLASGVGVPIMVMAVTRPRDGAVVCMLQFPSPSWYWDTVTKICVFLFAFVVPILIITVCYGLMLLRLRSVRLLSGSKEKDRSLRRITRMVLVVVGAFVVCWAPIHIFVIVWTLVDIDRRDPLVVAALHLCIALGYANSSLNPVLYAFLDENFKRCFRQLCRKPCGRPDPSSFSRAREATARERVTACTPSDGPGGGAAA
Mu-type opioid receptor, sequence (P35372 whole entry): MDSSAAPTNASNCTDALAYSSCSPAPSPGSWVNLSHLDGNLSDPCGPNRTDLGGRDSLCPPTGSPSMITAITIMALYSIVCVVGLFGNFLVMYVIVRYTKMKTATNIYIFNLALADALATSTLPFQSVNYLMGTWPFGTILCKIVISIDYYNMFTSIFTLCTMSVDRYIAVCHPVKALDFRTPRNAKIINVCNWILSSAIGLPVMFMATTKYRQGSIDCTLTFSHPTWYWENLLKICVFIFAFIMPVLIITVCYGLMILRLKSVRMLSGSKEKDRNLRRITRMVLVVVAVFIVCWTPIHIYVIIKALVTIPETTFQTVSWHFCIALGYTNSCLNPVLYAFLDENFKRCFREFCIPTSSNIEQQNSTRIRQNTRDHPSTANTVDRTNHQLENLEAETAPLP

For Cc1ccc(-n2c(N)c(C#N)c(-c3ccc(Cl)cc3)c(C#N)c2=O)cc1, the EC50 [1] was < 3 µM (active), the EC50 [2] was 4.94 µM (active) and the EC50 [3] was > 112 µM (not active). For the same compound, the AC50 [4] was 14.3 µM (active) and the EC50 [5] was 623 nM (active).
With O=S(=O)(c1ccccc1)c1cnc(-c2cccnc2)nc1-c1ccc(Cl)cc1Cl the AC50 [6] was 150 µM (active) and the AC50 [7] was 224 µM (active).
With Cc1ccc2cc(C(c3nnnn3Cc3ccccc3)N3CCc4ccccc43)c(O)nc2c1 (stereo unspecified) the EC50 [8] was > 92.5 µM (inactive), the EC50 [9] was > 92.5 µM (inactive) and the EC50 [10] was > 92.5 µM (inactive).
For O=C(c1ccc(F)cc1)N1CCN(c2ccnc3cc(Cl)ccc23)CC1, the AC50 [11] was 1.19 µM (active), the AC50 [12] was > 260 µM (inactive) and the AC50 [13] was 1.33 µM (active). The AC50 [14] was 570 nM (active) and the AC50 [15] was 3.2 µM (active).
For CCCCC1C(=O)N(c2ccccc2)N(c2ccc(O)cc2)C1=O (stereo unspecified) [OXYPHENBUTAZONE ANHYDROUS], the IC50 [16] was > 10 µM (inactive), the AC50 [17] was 9.85 µM (active) and the IC50 [18] was > 10 µM (inactive). The AC50 [19] was > 35 µM (active), the AC50 [20] was > 35 µM (active) and the IC50 [21] was > 80 µM (inactive).
